Source: patent US8969325B2, “TRPV1 antagonists” (AbbVie Inc., priority 2011, dated 2015)

Key:
human TRPV1 [1] = target: T1, human TRPV1 (Homo sapiens (Human), UniProt Q8NER1); assay: Acid Activation Assay (pH 5.0, intracellular Ca2+, FLIPR); format: cell-based; conditions: percentage of the maximal pH 5.0-induced response remaining; recombinant HEK293 hTRPV1 cells; maximum concentration tested 37.5 μM
Procedure, shortened: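 Readout: peak [Ca2+]i fluorescence over baseline on FLIPR, expressed as percentage remaining of the maximal pH 5.0-evoked signal. Stable hTRPV1-HEK293 cells with Calcium-4 dye received compound (12 half-log concentrations, maximum 37.5 μM) 3 min before acidic pH 5.0 buffer.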

human TRPV1 [2] = target: T1, human TRPV1; assay: Capsaicin Activation Assay (intracellular Ca2+, FLIPR); format: cell-based; conditions: recombinant HEK293 cells expressing hTRPV1, 50 nM capsaicin
Procedure, shortened: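 Ca2+ fluorescence was recorded by FLIPR every 1 to 5 seconds in HEK293 cells, clonally selected for stable human TRPV1 expression and plated one day ahead. Test compounds came as serial dilutions of 10 mM DMSO stocks.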

T1 sequence (Q8NER1 whole entry): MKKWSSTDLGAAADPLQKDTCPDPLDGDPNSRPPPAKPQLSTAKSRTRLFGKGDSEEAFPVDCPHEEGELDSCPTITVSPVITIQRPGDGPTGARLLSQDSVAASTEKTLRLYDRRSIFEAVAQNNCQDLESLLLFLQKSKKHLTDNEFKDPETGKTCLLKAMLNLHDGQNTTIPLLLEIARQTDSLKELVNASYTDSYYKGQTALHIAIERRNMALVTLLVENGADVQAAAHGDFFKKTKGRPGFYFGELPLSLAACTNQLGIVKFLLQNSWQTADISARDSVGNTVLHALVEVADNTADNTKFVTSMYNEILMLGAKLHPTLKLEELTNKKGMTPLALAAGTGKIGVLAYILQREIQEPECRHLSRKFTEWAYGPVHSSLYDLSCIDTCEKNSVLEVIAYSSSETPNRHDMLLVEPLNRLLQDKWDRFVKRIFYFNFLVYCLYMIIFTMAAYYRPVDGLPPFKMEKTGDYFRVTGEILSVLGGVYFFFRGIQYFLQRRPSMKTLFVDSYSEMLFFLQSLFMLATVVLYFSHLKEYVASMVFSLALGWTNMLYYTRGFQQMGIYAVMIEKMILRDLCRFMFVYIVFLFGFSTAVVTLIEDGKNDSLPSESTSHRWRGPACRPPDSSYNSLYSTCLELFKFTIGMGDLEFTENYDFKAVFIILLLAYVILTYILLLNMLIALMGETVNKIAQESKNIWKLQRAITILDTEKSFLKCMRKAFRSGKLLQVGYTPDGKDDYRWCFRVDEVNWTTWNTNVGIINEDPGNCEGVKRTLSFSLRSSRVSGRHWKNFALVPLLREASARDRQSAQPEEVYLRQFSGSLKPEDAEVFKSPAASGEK

SMILES | human TRPV1 H^+ (max % remain) (human TRPV1 [1]) | IC50 (human TRPV1 [2])
C[C@]1(C(F)F)C[C@@H](NC(=O)Nc2ccc3c(c2)NC(=O)CO3)c2ccccc2O1 [Example 131, 1-[(2R,4R)-2-(difluoromethyl)-2-methyl-3,4-dihydro-2H-chromen-4-yl]-3-(3-oxo-3,4-dihydro-2H-1,4-benzoxazin-6-yl)urea] | 89% | 360 nM
O=C(Nc1ccc2c(c1)NC(=O)N(CCO)C2)N[C@@H]1CCOc2cc(C(F)(F)F)ccc21 [Example 54, 1-[3-(2-hydroxyethyl)-2-oxo-1,2,3,4-tetrahydroquinazolin-7-yl]-3-[(4R)-7-(trifluoromethyl)-3,4-dihydro-2H-chromen-4-yl]urea] | 1% | 260 nM
CCC1(CC)C[C@@H](NC(=O)Nc2ccc3c(c2)NC(=O)N(C)C3)c2ccc(Cl)c(Cl)c2O1 [Example 182, 1-[(4R)-7,8-dichloro-2,2-diethyl-3,4-dihydro-2H-chromen-4-yl]-3-(3-methyl-2-oxo-1,2,3,4-tetrahydroquinazolin-7-yl)urea] | 29% | 380 nM
O=C1CCc2ccc(NC(=O)N[C@@H]3CCOc4ccccc43)cc2N1 [Example 220, 1-[(4R)-3,4-dihydro-2H-chromen-4-yl]-3-(2-oxo-1,2,3,4-tetrahydroquinolin-7-yl)urea] | 41% | 190 nM
CN1C(=O)CCc2ccc(NC(=O)N[C@@H]3CC(CF)(CF)Oc4cc(F)ccc43)cc21 [Example 296, 1-[(4R)-7-fluoro-2,2-bis(fluoromethyl)-3,4-dihydro-2H-chromen-4-yl]-3-(1-methyl-2-oxo-1,2,3,4-tetrahydroquinolin-7-yl)urea] | 68% | 130 nM
C[C@@]1(C(F)(F)F)C[C@@H](NC(=O)Nc2ccc3c(c2)NC(=O)CO3)c2ccccc2O1 [Example 125, 1-[(2S,4R)-2-methyl-2-(trifluoromethyl)-3,4-dihydro-2H-chromen-4-yl]-3-(3-oxo-3,4-dihydro-2H-1,4-benzoxazin-6-yl)urea] | 96% | 330 nM
CN1Cc2ccc(NC(=O)N[C@@H]3CC(C)(C)Oc4nc(C(F)(F)F)ccc43)cc2NC1=O [Example 208, 1-[(4R)-2,2-dimethyl-7-(trifluoromethyl)-3,4-dihydro-2H-pyrano[2,3-b]pyridin-4-yl]-3-(3-methyl-2-oxo-1,2,3,4-tetrahydroquinazolin-7-yl)urea] | 55% | 1300 nM
CN1C(=O)NCc2c(NC(=O)N[C@@H]3CC(C)(C)Oc4cc(F)ccc43)cccc21 [Example 1, 1-[(4R)-7-fluoro-2,2-dimethyl-3,4-dihydro-2H-chromen-4-yl]-3-(1-methyl-2-oxo-1,2,3,4-tetrahydroquinazolin-5-yl)urea] | 25% | 10 nM
CN1Cc2ccc(NC(=O)N[C@H]3CCOc4cc(OC(F)(F)F)ccc43)cc2NC1=O [Example 194, 1-(3-methyl-2-oxo-1,2,3,4-tetrahydroquinazolin-7-yl)-3-[(4S)-7-(trifluoromethoxy)-3,4-dihydro-2H-chromen-4-yl]urea] | 52% | 1800 nM
CC1(C)C[C@@H](NC(=O)Nc2ccc3c(c2)NC(=O)CC3)c2cccc(C(F)(F)F)c2O1 [Example 218, 1-[(4R)-2,2-dimethyl-8-(trifluoromethyl)-3,4-dihydro-2H-chromen-4-yl]-3-(2-oxo-1,2,3,4-tetrahydroquinolin-7-yl)urea] | 101% | 3600 nM
CN1C(=O)NCc2c(NC(=O)N[C@H]3CCOc4cc(OC(F)(F)F)ccc43)cccc21 [Example 169, 1-(1-methyl-2-oxo-1,2,3,4-tetrahydroquinazolin-5-yl)-3-[(4S)-7-(trifluoromethoxy)-3,4-dihydro-2H-chromen-4-yl]urea] | 96% | > 38000 nM
CN1C(=O)NCc2c(NC(=O)N[C@@H]3C[C@@](C)(C(F)F)Oc4cc(Cl)ccc43)cccc21 [Example 11, 1-[(2S,4R)-7-chloro-2-(difluoromethyl)-2-methyl-3,4-dihydro-2H-chromen-4-yl]-3-(1-methyl-2-oxo-1,2,3,4-tetrahydroquinazolin-5-yl)urea] | 32% | 21 nM
Cn1c(=O)ccc2c(NC(=O)N[C@@H]3CC4(CCC4)Oc4ccc(F)cc43)cccc21 [Example 73, 1-[(4R)-6-fluoro-3,4-dihydrospiro[chromene-2,1′-cyclobutan]-4-yl]-3-(1-methyl-2-oxo-1,2-dihydroquinolin-5-yl)urea] | 32% | 19 nM
CN1C(=O)NCc2c(NC(=O)N[C@@H]3CC(CF)(CF)Oc4cc(C(F)(F)F)ccc43)cccc21 [Example 146, 1-[(4R)-2,2-bis(fluoromethyl)-7-(trifluoromethyl)-3,4-dihydro-2H-chromen-4-yl]-3-(1-methyl-2-oxo-1,2,3,4-tetrahydroquinazolin-5-yl)urea] | 15% | 38 nM
C[C@@]1(C(F)F)C[C@@H](NC(=O)Nc2ccc3c(c2)NC(=O)N(CCO)C3)c2ccccc2O1 [Example 318, 1-[(2S,4R)-2-(difluoromethyl)-2-methyl-3,4-dihydro-2H-chromen-4-yl]-3-[3-(2-hydroxyethyl)-2-oxo-1,2,3,4-tetrahydroquinazolin-7-yl]urea] | 14% | 590 nM
CN1C(=O)NCc2c(NC(=O)N[C@@H]3CCOc4cc(C(F)(F)F)ccc43)cccc21 [Example 160, 1-(1-methyl-2-oxo-1,2,3,4-tetrahydroquinazolin-5-yl)-3-[(4R)-7-(trifluoromethyl)-3,4-dihydro-2H-chromen-4-yl]urea] | 23% | 42 nM
CN1C(=O)CCc2ccc(NC(=O)N[C@@H]3CCOc4cc(OC(F)(F)F)ccc43)cc21 [Example 278, 1-(1-methyl-2-oxo-1,2,3,4-tetrahydroquinolin-7-yl)-3-[(4R)-7-(trifluoromethoxy)-3,4-dihydro-2H-chromen-4-yl]urea] | 68% | 77 nM
CCCC1(CCC)C[C@@H](NC(=O)Nc2ccc3c(c2)NC(=O)CC3)c2cccc(F)c2O1 [Example 230, 1-[(4R)-8-fluoro-2,2-dipropyl-3,4-dihydro-2H-chromen-4-yl]-3-(2-oxo-1,2,3,4-tetrahydroquinolin-7-yl)urea] | 24% | 38 nM
O=C(Nc1ccc2c(c1)NC(=O)N(CCO)C2)N[C@@H]1CC(CF)(CF)Oc2ccc(F)cc21 [Example 49, 1-[(4R)-6-fluoro-2,2-bis(fluoromethyl)-3,4-dihydro-2H-chromen-4-yl]-3-[3-(2-hydroxyethyl)-2-oxo-1,2,3,4-tetrahydroquinazolin-7-yl]urea] | 8% | 6100 nM
Cn1c(=O)ccc2c(NC(=O)N[C@@H]3CCOc4c3cccc4C(F)(F)F)cccc21 [Example 97, 1-(1-methyl-2-oxo-1,2-dihydroquinolin-5-yl)-3-[(4R)-8-(trifluoromethyl)-3,4-dihydro-2H-chromen-4-yl]urea] | 26% | 17 nM
C[C@@]1(CF)C[C@@H](NC(=O)Nc2ccc3c(c2)NC(=O)CO3)c2ccc(C(F)(F)F)cc2O1 [Example 127, 1-[(2S,4R)-2-(fluoromethyl)-2-methyl-7-(trifluoromethyl)-3,4-dihydro-2H-chromen-4-yl]-3-(3-oxo-3,4-dihydro-2H-1,4-benzoxazin-6-yl)urea] | 100% | 67 nM
CCCC1(CCC)C[C@@H](NC(=O)Nc2cccc3c2CNC(=O)N3C)c2cc(F)ccc2O1 [Example 151, 1-[(4R)-6-fluoro-2,2-dipropyl-3,4-dihydro-2H-chromen-4-yl]-3-(1-methyl-2-oxo-1,2,3,4-tetrahydroquinazolin-5-yl)urea] | 53% | 170 nM
Cn1c(=O)ccc2c(NC(=O)N[C@@H]3CC(C)(C)Oc4ccccc43)cccc21 [Example 77, 1-[(4R)-2,2-dimethyl-3,4-dihydro-2H-chromen-4-yl]-3-(1-methyl-2-oxo-1,2-dihydroquinolin-5-yl)urea] | 58% | 41 nM
CCC1(CC)C[C@@H](NC(=O)Nc2cccc3c2CNC(=O)N3C)c2ccc(Cl)c(Cl)c2O1 [Example 147, 1-[(4R)-7,8-dichloro-2,2-diethyl-3,4-dihydro-2H-chromen-4-yl]-3-(1-methyl-2-oxo-1,2,3,4-tetrahydroquinazolin-5-yl)urea] | 15% | 600 nM
CN1C(=O)CCc2ccc(NC(=O)N[C@@H]3CC(CF)(CF)Oc4c(F)cc(F)cc43)cc21 [Example 268, 1-[(4R)-6,8-difluoro-2,2-bis(fluoromethyl)-3,4-dihydro-2H-chromen-4-yl]-3-(1-methyl-2-oxo-1,2,3,4-tetrahydroquinolin-7-yl)urea] | 66% | 1200 nM
O=C(Nc1ccc2c(c1)NC(=O)N(CCO)C2)N[C@@H]1CC(CF)(CF)Oc2cc(C(F)(F)F)ccc21 [Example 309, 1-[(4R)-2,2-bis(fluoromethyl)-7-(trifluoromethyl)-3,4-dihydro-2H-chromen-4-yl]-3-[3-(2-hydroxyethyl)-2-oxo-1,2,3,4-tetrahydroquinazolin-7-yl]urea] | 36% | 18000 nM
C[C@@]1(C(F)(F)F)C[C@@H](NC(=O)Nc2ccc3c(c2)NC(=O)CC3)c2ccccc2O1 [Example 245, 1-[(2S,4R)-2-methyl-2-(trifluoromethyl)-3,4-dihydro-2H-chromen-4-yl]-3-(2-oxo-1,2,3,4-tetrahydroquinolin-7-yl)urea] | 28% | 280 nM
